# Assay results taken from US20200061035A1 (Heron Therapeutics, Inc., priority 2016, published 2020).
# Legend:
# [1] = Pharmacokinetic analysis of granisetron and olanzapine formulation in canines (plasma concentration by LC/MS/MS); assay type: in vivo; details: both sexes, dog, dogs, same formulation, approx. 5 mg granisetron, read-out: Average Plasma Concentrations of Granisetron
# Experimental: Plasma samples were taken from each dog at the following time points: 0, 0.5, 1, 3, 6, 8, 24, 48, 72, 96, 120 hours, and frozen.
# [2] = cited from earlier work
SMILES,concentration at 0.5 h ([1]; 0.5 hrs),concentration at 1 h ([1]; 1 hr),concentration at 3 h ([1]; 3 hrs),concentration at 6 h ([1]; 6 hrs),concentration at 8 h ([1]; 8 hrs),concentration at 24 h ([1]; 24 hrs),concentration at 48 h ([1]; 48 hrs),concentration at 72 h ([1]; 72 hrs),concentration at 96 h ([1]; 96 hrs),concentration at 120 h ([1]; 120 hrs),Solubility in water [2]
"CN1C2CCCC1CC(NC(=O)c1nn(C)c3ccccc13)C2 (centres unmarked) [Granisetron, granisetron]",11.7 ng/mL,14.3 ng/mL,14.2 ng/mL,10.7 ng/mL,8.02 ng/mL,6.82 ng/mL,3.27 ng/mL,1.54 ng/mL,0.95 ng/mL,0.4 ng/mL,–
"Cc1cc2c(s1)Nc1ccccc1N=C2N1CCN(C)CC1 [Olanzapine, 2-methyl-10-(4-methyl-1-piperazinyl)-4H-thieno[2,3-b][1,5]benzodiazepine]",–,–,–,–,–,–,–,–,–,–,practically insoluble
